The test system of this assay is HCV pseudoparticles (genotype 1a HCV E1 and E2 envelope, H77C isolate). Put plainly: microbe, parasite or virus in culture. The format is cell-based. The following applies: Hepatitis C virus.
[1] abbreviates: Huh-7, 48 h, read-out: Activity (EC50 class), HCV pseudoparticle infection of Huh7 cells, luciferase 2 days after infection, EC50 expressed as class A/B.
[2] abbreviates: Huh-7, read-out: Activity (EC50 class), HCV pseudoparticles (genotype 1a, H77C) in Huh7 cells, EC50 expressed as class A/B.
The mark [3] stands for this setting: Huh-7, 48 h, HCV pseudoparticle infection of Huh7 cells, luciferase 2 days after infection, average of duplicates.
[4] abbreviates: Huh-7, 48 h, read-out: Activity (EC50 class), HCV pseudoparticles, Huh7 cells, luciferase 2 days after infection, average of duplicates.

Where two headings read alike, the source gives them in different places.

As usually defined, the EC50 is the concentration that produces a half-maximal response.

On to `CCC(CC)NC(=O)C(=O)NC[C@H](NC(=O)c1ccc(Nc2nc(NC3(c4ccc(Cl)cc4)CC3)nc(OCC(F)(F)F)n2)cc1)C(=O)O` [Compound 1091], for which, under setting [1], the EC50 was in the range of 0.01 to 10 nM.

With `CC(C)(CNC(=O)C(=O)Nc1ccc(C#N)c(Cl)c1)CNC(=O)c1ccc(Nc2nc(NC3(c4ccc(Cl)cc4)CC3)nc(OCC(F)(F)F)n2)cc1` [Compound 3374], the EC50 under setting [2] lay in the range of 0.01 to 10 nM. For the compound `COC(=O)[C@H](CCNC(=O)C(=O)NC1CC(C)CC(C)(C)C1)NC(=O)c1ccc(Nc2nc(NC3(c4ccc(Cl)cc4)CC3)nc(OCC(F)(F)F)n2)cc1` (stereo partly shown) [Compound 1107], the EC50 under setting [3] amounted to 0.46 nM and the EC50 under setting [1] is 0.01 to 10 nM. Regarding `CC(C)(CNC(=O)C(=O)Nc1ccc(C#N)cc1F)CNC(=O)c1ccc(Nc2nc(NC3(c4ccc(Cl)cc4)CC3)nc(OCC(F)(F)F)n2)cc1` [Compound 3383], the EC50 under setting [2] is 0.01 to 10 nM. In the case of `CC(C)(CNC(=O)C(=O)Nc1cccc(Oc2ccccc2)c1)CNC(=O)c1ccc(Nc2nc(NC3(c4ccc(Cl)cc4)CC3)nc(OCC(F)(F)F)n2)cc1` [Compound 3667], the EC50 under setting [4] lay within 0.01 to 10 nM. Consider `COC(=O)/C(CCNC(=O)C(=O)Nc1ccc(N)nc1)=N\C(=O)c1ccc(Nc2nc(NC3(c4ccc(Cl)cc4)CC3)nc(OCC(F)(F)F)n2)cc1` [Compound 3587], for which, under setting [2], the half-maximal effective concentration (EC50) is 0.01 to 10 nM. In the case of `CC(C)(C)OC(=O)N1CCC(CNC(=O)C(=O)NCC[C@H](NC(=O)c2ccc(Nc3nc(NC4(c5ccc(Cl)cc5)CC4)nc(OCC(F)(F)F)n3)cc2)C(=O)O)CC1` [Compound 1213], the EC50 under setting [1] was in the range of 0.01 to 10 nM. For `CCc1nccn1CC1(CNC(=O)C(=O)NCC[C@@H](NC(=O)c2ccc(Nc3nc(NC4(c5ccc(Cl)cc5)CC4)nc(OCC(F)(F)F)n3)cc2)C(=O)OC)CC1` [Compound 1386], the EC50 reads like this: under setting [3], 2.76 nM; under setting [1], 0.01 to 10 nM. Regarding `COC(=O)[C@H](CCNC(=O)C(=O)NC1CCCC(O)C1)NC(=O)c1ccc(Nc2nc(NC3(c4ccc(Cl)cc4)CC3)nc(OCC(F)(F)F)n2)cc1` (stereo partly shown) [Compound 1070], the EC50 under setting [1] lay in the range of 0.01 to 10 nM. Take `CC(C)(CNC(=O)C(=O)NCc1ccc(C(=N)N)cc1)CNC(=O)c1ccc(Nc2nc(NC3(c4ccc(Cl)cc4)CC3)nc(OCC(F)(F)F)n2)cc1` [Compound 3043]: the EC50 under setting [2] fell in the range of 0.01 to 10 nM.

As for `CC(C)(CNC(=O)C(=O)NCc1ccc(Cl)cc1)CNC(=O)c1ccc(Nc2nc(NC3(c4ccc(Cl)cc4)CC3)nc(OCC(F)(F)F)n2)cc1` [Compound 3009], under setting [2], the EC50 lay in the range of 0.01 to 10 nM. As to `CC(C)(CNC(=O)C(=O)Nc1ccccc1-c1cc2ccccc2[nH]1)CNC(=O)c1ccc(Nc2nc(NC3(c4ccc(Cl)cc4)CC3)nc(OCC(F)(F)F)n2)cc1` [Compound 3052], the EC50 under setting [2] lay in the range of 0.01 to 10 nM. Take `CC(C)(CNC(=O)c1ccc(Nc2nc(NC3(c4ccc(Cl)cc4)CC3)nc(OCC(F)(F)F)n2)cc1)NC(=O)C(=O)Nc1cccc(F)c1` [Compound 3421]: the 50% effective concentration (EC50) under setting [2] was in the range of 0.01 to 10 nM. Still for that read-out and setting: for `Cc1ccc(-c2ccc(NC(=O)C(=O)NCCC(NC(=O)c3ccc(Nc4nc(NC5(c6ccc(Cl)cc6)CC5)nc(OCC(F)(F)F)n4)cc3)C(=O)O)cc2)cc1` (stereo not shown) [Compound 3526] the value was 0.01 to 10 nM. In the case of `COC(=O)[C@H](CCNC(=O)C(=O)Nc1cccc(CCC(N)O)c1)NC(=O)c1ccc(Nc2nc(NC3(c4ccc(Cl)cc4)CC3)nc(OCC(F)(F)F)n2)cc1` (stereo partly shown) [Compound 3609], the EC50 under setting [4] fell in the range of 0.01 to 10 nM. As for `COC(=O)[C@H](CCNC(=O)C(=O)Nc1ccc(F)c(F)c1F)NC(=O)c1ccc(Nc2nc(NC3(c4ccc(Cl)cc4)CC3)nc(OCC(F)(F)F)n2)cc1` [Compound 1508], the EC50 under setting [1] is 0.01 to 10 nM. For `CC(C)(CNC(=O)C(=O)NC1CC1)CNC(=O)c1ccc(Nc2nc(NC3(c4ccc(Cl)cc4)CC3)nc(OCC(F)(F)F)n2)cc1` [Compound 3066], the EC50 is 0.032 nM (Huh-7, 48 h, HCV pseudoparticles (genotype 1a, H77C) in Huh7 cells, average of duplicate, luciferase 2 days after infection) and 0.01 to 10 nM under setting [2].

For `COC(=O)[C@H](CNC(=O)C(=O)Nc1cccc(Cc2ccccc2)c1)NC(=O)c1ccc(Nc2nc(NC3(c4ccc(Cl)cc4)CC3)nc(OCC(F)(F)F)n2)cc1` [Compound 3714], the EC50 under setting [4] lay in the range of 0.01 to 10 nM. With `CC(C)(CNC(=O)C(=O)Nc1ccc(Cl)cc1F)CNC(=O)c1ccc(Nc2nc(NC3(c4ccc(Cl)cc4)CC3)nc(OCC(F)(F)F)n2)cc1` [Compound 3452], the EC50 under setting [2] was in the range of 0.01 to 10 nM.

Values taken from patent publication US8916702B2 (priority 2012, dated 2014).
